In US20030166202A1, “P450 Monooxygenases of the cyp79 family” (priority 2000, published 2003):

Tests used:
CYP79D2 = target: T1, CYP79D2 (Manihot esculenta, UniProt Q9M7B7); type: biochemical, cassava
T1 construct: made in house
Protocol: Investigations into the substrate specificity of CYP79D1, CYP79D2, CYP79E1, CYP79E2, CYP79A2, CYP79B2, CYP79B5 and CYP79F1 are carried out in E. coli spheroplasts reconstituted with sorghum NADPH-cytochrome P450 oxidoreductase in the presence of high amounts of lipids. L-α-dioleyl phosphatidyl choline and L-α-dilauroyl phosphatidyl choline are preferred lipids for the reconstitution. […] Depending on the nature of the substrate, substrate specificity may also be determined using intact P. pastoris cells or intact E. coli cells.
The ability of a P450 monooxygenase to convert an aliphatic or aromatic amino acid or chain-elongated methionine homologue to the corresponding oxime can be tested in an assay (see also example 5) comprising
a) incubating a reaction mixture comprising the P450 monooxygenase of the present invention or spheroplasts of E.coli cells expressing said enzyme, the parent amino acid, NADPH, oxygen, NADPH-cytochrome P450 oxidoreductase and lipid at ambient temperature for a certain period of time which is between 2 min and 2 to 6 hours;
b) terminating the reaction for example by the addition of a denaturing compounds such as ethyl acetate; and
c) chemically identifying and quantifying the aldoxime produced.

CYP79E2 = test: Substrate specificity / reconstitution of CYP79E2; type: biochemical, Triglochin maritima
Protocol: Investigations into the substrate specificity of CYP79D1, CYP79D2, CYP79E1, CYP79E2, CYP79A2, CYP79B2, CYP79B5 and CYP79F1 are carried out in E. coli spheroplasts reconstituted with sorghum NADPH-cytochrome P450 oxidoreductase in the presence of high amounts of lipids. L-α-dioleyl phosphatidyl choline and L-α-dilauroyl phosphatidyl choline are preferred lipids for the reconstitution. […] Neither L-methionine, L-tryptophane nor L-tyrosine are metabolized by CYP79A2. Neither phenylalanine nor tyrosine are metabolized by CYP79B2. Neither L-tryptophane, L-phenylalanine nor L-tyrosine are metabolized by CYP79F1. D-Amino acids are not converted into oximes by CYP79D1, CYP79D2, CYP79E1 and CYP79E2. Depending on the nature of the substrate, substrate specificity may also be determined using intact P. pastoris cells or intact E. coli cells.
Expression levels of the different constructs are determined by CO difference spectroscopy and quantified using an extinction coefficient ε450-490 of 91 mM^−1cm^−1 (Omura et al, J. Biol. Chem. 239: 2370-2378, 1964). Spectra are made from 100 μl or 500 μl whole E. coli cells or using the rich phases from Triton X-114 phase partitioning solubilized in 50 mM KH2PO4/K2HPO4 pH 7.5, 2 mM EDTA, 20% glycerol, 0.2% Triton X-100 (total volume: 1 ml). […] In vitro activities are measured in reconstitution experiments using the rich phase from phase partitioning. […]

CYP79A2 = target: T2, CYP79A2 (Arabidopsis thaliana, UniProt Q9FLC8); test: CYP79A2 activity in E. coli spheroplasts reconstituted with NADPH:cytochrome P450 oxidoreductase; details: TLC or GC-MS detection
T2 sequence (Q9FLC8 7-529 limits assumed): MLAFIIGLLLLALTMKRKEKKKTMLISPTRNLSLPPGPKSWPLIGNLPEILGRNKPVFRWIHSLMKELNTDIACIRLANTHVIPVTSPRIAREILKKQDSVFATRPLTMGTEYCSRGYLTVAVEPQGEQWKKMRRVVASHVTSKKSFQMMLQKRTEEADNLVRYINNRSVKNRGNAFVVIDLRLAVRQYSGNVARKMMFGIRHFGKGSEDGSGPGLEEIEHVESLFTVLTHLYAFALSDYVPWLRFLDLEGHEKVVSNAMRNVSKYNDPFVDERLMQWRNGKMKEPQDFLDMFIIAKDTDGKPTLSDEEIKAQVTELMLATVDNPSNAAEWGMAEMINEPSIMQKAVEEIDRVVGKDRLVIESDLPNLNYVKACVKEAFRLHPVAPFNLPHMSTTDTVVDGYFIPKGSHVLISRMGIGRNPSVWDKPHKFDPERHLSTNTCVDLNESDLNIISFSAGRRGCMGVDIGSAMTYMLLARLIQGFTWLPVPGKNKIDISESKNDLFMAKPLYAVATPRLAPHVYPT

T1 sequence (Q9M7B7 whole entry): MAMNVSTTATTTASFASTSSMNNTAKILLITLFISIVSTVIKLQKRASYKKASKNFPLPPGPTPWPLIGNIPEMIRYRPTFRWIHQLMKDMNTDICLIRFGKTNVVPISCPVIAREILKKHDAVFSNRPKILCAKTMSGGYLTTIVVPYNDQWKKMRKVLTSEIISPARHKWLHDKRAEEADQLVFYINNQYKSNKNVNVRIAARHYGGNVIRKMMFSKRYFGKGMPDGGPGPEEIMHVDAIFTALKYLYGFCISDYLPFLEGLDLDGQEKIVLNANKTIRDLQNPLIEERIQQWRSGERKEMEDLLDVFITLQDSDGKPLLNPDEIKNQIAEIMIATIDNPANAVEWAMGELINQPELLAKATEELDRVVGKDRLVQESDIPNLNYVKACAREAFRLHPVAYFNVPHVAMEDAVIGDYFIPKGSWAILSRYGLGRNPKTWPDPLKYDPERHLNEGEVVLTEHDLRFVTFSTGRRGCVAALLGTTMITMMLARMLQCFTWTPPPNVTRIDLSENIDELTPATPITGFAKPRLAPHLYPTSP

Compound: N[C@@H](Cc1ccc(O)cc1)C(=O)O [L-tyrosine]
- conversion to the corresponding oxime by CYP79D2 (CYP79D2): Neither L-Leucine, L-phenylalanine nor L-tyrosine are metabolized
- conversion to the corresponding oxime by CYP79E2 (CYP79E2): found to convert
- product accumulation in reconstitution of CYP79E2 with CYP71E1 (CYP79E2; with NADPH, NADPH-cytochrome P450 oxidoreductase, CYP71E1): considerable amounts of p-hydroxyphenylacetonitrile and p-hydroxybenzaidehyde accumulate
- production of the respective aldoxime by CYP79A2 (CYP79A2): does not result in production of detectable amounts of the respective aldoximes
